Numbers after ± are expanded uncertainties.
What was measured:
[1] = 101.3 kPa, Liquid; for viscosity: Capillary tube (Ostwald / Ubbelohde) method
[2] = xn = mol fraction of the nth substance listed; conditions: 101.3 kPa, Liquid, x2 = 0; for viscosity: Capillary tube (Ostwald / Ubbelohde) method

| SMILES | mass density ([1]; 293.15 K) [kg/m3] | speed of sound ([1]; 293.15 K) [m/s] | viscosity ([1]; 293.15 K) [mPa·s] | mass density ([1]; 303.15 K) [kg/m3] | speed of sound ([1]; 303.15 K) [m/s] | viscosity ([1]; 303.15 K) [mPa·s] | mass density ([1]; 313.15 K) [kg/m3] | speed of sound ([1]; 313.15 K) [m/s] | viscosity ([1]; 313.15 K) [mPa·s] | viscosity ([2]; 293.15 K) [mPa·s] | mass density ([2]; 293.15 K) [kg/m3] | speed of sound ([2]; 293.15 K) [m/s] | viscosity ([2]; 303.15 K) [mPa·s] | mass density ([2]; 303.15 K) [kg/m3] | speed of sound ([2]; 303.15 K) [m/s] | viscosity ([2]; 313.15 K) [mPa·s] | mass density ([2]; 313.15 K) [kg/m3] | speed of sound ([2]; 313.15 K) [m/s] |
| --- | --- | --- | --- | --- | --- | --- | --- | --- | --- | --- | --- | --- | --- | --- | --- | --- | --- | --- |
| Cc1ccccc1C [1,2-dimethylbenzene] | 880.2 ± 1.2 | 1365.6 ± 3.5 | 0.8092 ± 0.0098 | 871.8 ± 1.2 | 1339 ± 3.5 | 0.7172 ± 0.0089 | 863.2 ± 1.3 | 1297.5 ± 3.4 | 0.6292 ± 0.0079 | – | – | – | – | – | – | – | – | – |
| Cc1ccccc1C [1,2-dimethylbenzene] + CCC(=O)CC | – | – | – | – | – | – | – | – | – | 0.8092 ± 0.0098 | 880.2 ± 1.2 | 1365.6 ± 3.5 | 0.7172 ± 0.0089 | 871.8 ± 1.2 | 1339 ± 3.5 | 0.6292 ± 0.0079 | 863.2 ± 1.3 | 1297.5 ± 3.4 |
| CCc1ccccc1 [ethylbenzene] | 867.4 ± 1.2 | 1333.4 ± 3.5 | 0.6793 ± 0.0085 | 856.5 ± 1.2 | 1295.7 ± 3.4 | 0.6006 ± 0.0077 | 848.9 ± 1.3 | 1259.8 ± 3.4 | 0.5355 ± 0.007 | – | – | – | – | – | – | – | – | – |
| CCc1ccccc1 [ethylbenzene] + CCC(=O)CC | – | – | – | – | – | – | – | – | – | 0.6793 ± 0.0085 | 867.4 ± 1.2 | 1333.4 ± 3.5 | 0.6006 ± 0.0077 | 856.5 ± 1.2 | 1295.7 ± 3.4 | 0.5355 ± 0.007 | 848.9 ± 1.3 | 1259.8 ± 3.4 |
| CCC(=O)CC [pentan-3-one] | 814.4 ± 1.1 | 1230.7 ± 3.3 | 0.4714 ± 0.0064 | 804.7 ± 1.1 | 1197.8 ± 3.3 | 0.4231 ± 0.0059 | 794.9 ± 1.2 | 1159.1 ± 3.3 | 0.3799 ± 0.0055 | – | – | – | – | – | – | – | – | – |

Source: the NIST ThermoML archive (doi:10.1021/je030151s)
